In this assay the test system is recombinant rabies virus 1088 strain expressing Gaussia Luciferase (1088/GLuc). Put plainly: microbe, parasite or virus in culture. Type of assay: cell-based.

Consider 5 compounds from patent US12310955B2 (priority 2020, dated 2025).

Read-outs that look alike come from different tables or passages of the source.

`Cc1ccc2c(CN3CC4CC5(C(=O)NCC6CCCCCC6)NC(=O)C4C3C5CC(C)C)cn(C(=O)OC(C)(C)C)c2c1` (racemic) [IF-782]: under “read-out: Anti-rabies activity”, the IC50 was 10 to 30 µM. On to `COc1ccc(CN2C[C@H]3C[C@]4(C(=O)NCc5ccccc5)NC(=O)[C@H]3[C@H]2[C@H]4CC(C)C)cc1` (relative stereo) [Compound I-5, (3S*,3aR*,6S*,7R*,7aR*)-N-benzyl-7-isobutyl-1-(4-methoxybenzyl)-4-oxooctahydro-6H-3,6-methanopyrrolo[3,2-c]pyridine-6-carboxamide], for which the IC50 (Lyssavirus rabies, N2a, 72 h, read-out: Anti-rabies activity) was less than 5 µM. In the case of `NC(=O)c1nc(F)c[nH]c1=O` [Compound T-705, reference compound], the IC50 (Lyssavirus rabies, N2a, 72 h, read-out: anti-rabies virus activity IC50) is 30 µM. Consider `Cc1ccc2c(C[C@@H]3[C@H]4C[C@H]5CN[C@@H]3[C@@]5(C(=O)NCC3CCCCCC3)N(CC(C)C)C4=O)cn(C(=O)OC(C)(C)C)c2c1` [IB-814], for which, for the setting “read-out: Anti-rabies activity”, the IC50 lay within 10 to 30 µM. For `CC(C)CN1C(=O)[C@@H]2C[C@H]3CN[C@@H]([C@@H]2Cc2c[nH]c4cc(F)ccc24)[C@]31C(=O)NCC1CCCCCC1` [IB-817], for the setting “read-out: Anti-rabies activity”, the IC50 lay in the range of 10 to 30 µM.
